Laboratory results as given in patent publication US20250161307A1, “PYRAZOLOPYRIMIDINES AS MODULATORS OF SPERMINE OXIDASE” (Janssen Pharmaceutica NV, priority 2022, published 2025).
Counter-ions that a name gives are not always drawn.

Key:
[1] = molecular target: SMOX (Homo sapiens (Human), UniProt Q9NWM0); test: Human SMOX assay (HyPerBlu chemiluminescent detection of hydrogen peroxide); assay type: biochemical; details: 2.5 nM full length hSMOX, spermine substrate, 1 h at room temperature, luminescence read; read-out: SMOx_IC50
Description: (§1) The direct detection of hydrogen peroxide produced from the enzymatic reaction of hSMOX or hPAOX in a biochemical assay format was measured using HyPerBlu (Lumigen, Southfield, MI), a small molecule boronate probe that reacts with hydrogen peroxide to generate a chemiluminescent signal. Inhibition of hSMOX or hPAOX enzyme results in a decrease in luminescence.
Test compounds (75 nL) dissolved in DMSO were added to a 384-well white assay plate (Greiner Bio-one, catalog #784075) using an ECHO Acoustic Dispenser (Labcyte). Each compound was serially diluted 3-fold in DMSO to prepare an 11-point dose response curve (columns 1-22). Column 23 and 24 contained 75 nL of 2 mM chlorhexidine and DMSO, respectively, to represent the 100% inhibited versus the neutral control reactions.
Subsequently, 3 μL/well of the substrate solution prepared in assay buffer (10 mM Hepes, pH 7.4, 150 mM NaCl, 1 mM EGTA, 0.01% Pluronic F-127, 0.05% ovalbumin) was dispensed into the assay plate followed by 3 μL/well of full length hSMOX enzyme with an N-terminal His tag from E. coli prepared in assay buffer to initiate the reactions. After a 1 h incubation at room temperature, 6 μL/well of HyPerBlu was added. After a 30 min incubation, the hydrogen peroxide product generated from the hSMOX reactions was measured using an endpoint luminescence read on the PHERAStar FS/FSX microplate reader (BMG LABTECH).
The final assay conditions included 10 mM Hepes, pH 7.4, 150 mM NaCl, 1 mM EGTA, 0.01% Pluronic F-127, 0.05% ovalbumin, 2.5 nM hSMOX, 30 µM spermine, and 1.25% DMSO.
Dose-response curves were fit and compound IC50 values were determined using Genedata Screener (Genedata AG).

[2] = molecular target: hPAOX (Homo sapiens (Human), UniProt Q6QHF9); test: Human PAOX assay (HyPerBlu chemiluminescent detection of hydrogen peroxide); assay type: biochemical; details: 60 pM recombinant PAOX, 20 μM N-acetylspermine substrate
Description: as §1
The hPAOX assay was run and the data analyzed similarly to the hSMOX assay described above, except the reactions contained 60 pM recombinant PAOX with an N-terminal His tag expressed from sf9 insect cells and used 20 μM N-acetylspermine as the substrate.

SMOX, sequence (Q9NWM0 whole entry): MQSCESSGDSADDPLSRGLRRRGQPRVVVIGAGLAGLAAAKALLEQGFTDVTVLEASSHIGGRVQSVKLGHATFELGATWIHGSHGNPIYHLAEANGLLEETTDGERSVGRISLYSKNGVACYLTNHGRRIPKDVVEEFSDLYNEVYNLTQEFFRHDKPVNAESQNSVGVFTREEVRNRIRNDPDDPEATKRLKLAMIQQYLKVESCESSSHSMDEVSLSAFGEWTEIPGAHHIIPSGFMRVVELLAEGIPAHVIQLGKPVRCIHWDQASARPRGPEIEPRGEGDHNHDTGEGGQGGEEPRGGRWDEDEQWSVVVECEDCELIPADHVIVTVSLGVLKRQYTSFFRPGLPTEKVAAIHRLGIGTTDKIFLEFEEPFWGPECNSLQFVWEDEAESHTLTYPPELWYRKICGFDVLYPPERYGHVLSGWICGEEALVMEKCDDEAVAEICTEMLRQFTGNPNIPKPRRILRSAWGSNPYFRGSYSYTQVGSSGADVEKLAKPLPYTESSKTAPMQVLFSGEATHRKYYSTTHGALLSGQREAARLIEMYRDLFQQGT
hPAOX, sequence (Q6QHF9 whole entry): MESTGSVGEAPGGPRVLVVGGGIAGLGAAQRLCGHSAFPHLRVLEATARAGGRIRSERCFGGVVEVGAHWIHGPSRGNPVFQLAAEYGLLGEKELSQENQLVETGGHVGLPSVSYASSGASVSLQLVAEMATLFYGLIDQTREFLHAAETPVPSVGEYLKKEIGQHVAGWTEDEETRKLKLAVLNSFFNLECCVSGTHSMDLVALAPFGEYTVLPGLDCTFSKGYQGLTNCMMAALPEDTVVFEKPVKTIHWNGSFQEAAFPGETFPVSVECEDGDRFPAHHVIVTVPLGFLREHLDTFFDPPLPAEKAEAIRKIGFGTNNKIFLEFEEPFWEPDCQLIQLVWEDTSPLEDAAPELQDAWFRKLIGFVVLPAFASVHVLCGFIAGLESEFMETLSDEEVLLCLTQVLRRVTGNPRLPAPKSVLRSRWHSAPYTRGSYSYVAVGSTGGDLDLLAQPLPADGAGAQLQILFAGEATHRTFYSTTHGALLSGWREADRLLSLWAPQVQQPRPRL

IC50 [1]	IC50 [2]	Structure (SMILES)
305 nM	840 nM	O=C(NCCCn1ccnc1)c1cc2nc(-c3ccccc3)cc(C3CCCC3)n2n1 [Example 108, N-(3-(1H-imidazol-1-yl)propyl)-7-cyclopentyl-5-phenylpyrazolo[1,5-a]pyrimidine-2-carboxamide]
2880 nM	5710 nM	O=C(NCCCn1ccnc1)c1cc2nc(-c3ccccc3)cc(N3CCOCC3)n2n1 [Example 59, N-(3-(1H-Imidazol-1-yl)propyl)-7-morpholino-5-phenylpyrazolo[1,5-a]pyrimidine-2-carboxamide]
1290 nM	1400 nM	CN1CC(NC(=O)c2cc3nc(-c4ccccc4F)cc(-c4ccccc4)n3n2)C1 [Example 104, 5-(2-fluorophenyl)-N-(1-methylazetidin-3-yl)-7-phenylpyrazolo[1,5-a]pyrimidine-2-carboxamide]
606 nM	10400 nM	CN1CCC(NC(=O)c2cc3nc(-c4ccccc4)cc(-c4ccccc4)n3n2)CC1 [Example 17, N-(1-Methylpiperidin-4-yl)-5,7-diphenylpyrazolo[1,5-a]pyrimidine-2-carboxamide]
> 31200 nM	> 31200 nM	O=C(NCCc1ccccc1)c1cc2nc(-c3ccccc3)cc(-c3ccccc3)n2n1 [Example 40, N-Phenethyl-5,7-diphenylpyrazolo[1,5-a]pyrimidine-2-carboxamide]
33 nM	5410 nM	CN1CC(NC(=O)c2nn3c(-c4ccccc4)cc(-c4ccccc4)nc3c2I)C1 [Example 46, 3-Iodo-N-(1-methylazetidin-3-yl)-5,7-diphenylpyrazolo[1,5-a]pyrimidine-2-carboxamide]
801 nM	2400 nM	NCCNC(=O)c1cc2nc(-c3ccccc3)cc(-c3ccccc3)n2n1 [Example 119, N-(2-aminoethyl)-5,7-diphenylpyrazolo[1,5-a]pyrimidine-2-carboxamide hydrochloride]
480 nM	1760 nM	CN1CC(CNC(=O)c2cc3nc(-c4ccccc4)cc(-c4ccccc4)n3n2)C1 [Example 29, N-((1-Methylazetidin-3-yl)methyl)-5,7-diphenylpyrazolo[1,5-a]pyrimidine-2-carboxamide]
1010 nM	7140 nM	CN1CC[C@@H](NC(=O)c2cc3nc(-c4ccccc4)cc(N4CCCCC4)n3n2)C1 (single isomer, unassigned) [Example 72, (*R)—N-(1-methylpyrrolidin-3-yl)-5-phenyl-7-(piperidin-1-yl)pyrazolo[1,5-a]pyrimidine-2-carboxamide trifluoroacetate]
604 nM	5260 nM	O=C(NCCCN1CCOCC1)c1cc2nc(-c3ccccc3)cc(-c3ccccc3)n2n1 [Example 13, N-(3-Morpholinopropyl)-5,7-diphenylpyrazolo[1,5-a]pyrimidine-2-carboxamide]
2210 nM	6780 nM	CN1CC(C)(NC(=O)c2cc3nc(-c4ccccc4)cc(-c4ccccc4)n3n2)C1 [Example 42, N-(1,3-Dimethylazetidin-3-yl)-5,7-diphenylpyrazolo[1,5-a]pyrimidine-2-carboxamide]
195 nM	1120 nM	O=C(NCCCc1ccncc1)c1cc2nc(-c3ccccc3)cc(-c3ccccc3)n2n1 [Example 9, 5,7-Diphenyl-N-(3-(pyridin-4-yl)propyl)pyrazolo[1,5-a]pyrimidine-2-carboxamide]
314 nM	> 31200 nM	CN(C)CC(C)(C)CNC(=O)c1cc2nc(-c3ccccc3)cc(-c3ccccc3)n2n1 [Example 33, N-(3-(Dimethylamino)-2,2-dimethylpropyl)-5,7-diphenylpyrazolo[1,5-a]pyrimidine-2-carboxamide]
1550 nM	10000 nM	CN1CC(NC(=O)c2cc3nc(-c4ccccn4)cc(-c4ccccc4)n3n2)C1 [Example 102, N-(1-methylazetidin-3-yl)-7-phenyl-5-(pyridin-2-yl)pyrazolo[1,5-a]pyrimidine-2-carboxamide]
617 nM	1380 nM	CN(C)CCNC(=O)c1cc2nc(-c3ccccc3)cc(-c3ccccc3)n2n1 [Example 10, N-(2-(Dimethylamino)ethyl)-5,7-diphenylpyrazolo[1,5-a]pyrimidine-2-carboxamide]
17700 nM	9830 nM	CN1CCC(NC(=O)c2cc3nc(-c4ccccc4)cc(N4CCCCC4)n3n2)CC1 [Example 74, N-(1-methylpiperidin-4-yl)-5-phenyl-7-(piperidin-1-yl)pyrazolo[1,5-a]pyrimidine-2-carboxamide]

IC50 [1]	IC50 [2]	Structure (SMILES)
> 31200 nM	> 31200 nM	O=C(NC1CCC1)c1cc2nc(-c3ccccc3)cc(-c3ccccc3)n2n1 [Example 41, N-Cyclobutyl-5,7-diphenylpyrazolo[1,5-a]pyrimidine-2-carboxamide]
215 nM	1920 nM	CN1CC(NC(=O)c2nn3c(-c4ccccc4)cc(-c4ccccc4)nc3c2F)C1 [Example 52, 3-Fluoro-N-(1-methylazetidin-3-yl)-5,7-diphenylpyrazolo[1,5-a]pyrimidine-2-carboxamide]
874 nM	3730 nM	O=C(NCCCn1ccnc1)c1cc2nc(-c3ccccc3)cc(N3CCC3)n2n1 [Example 56, N-(3-(1H-Imidazol-1-yl)propyl)-7-(azetidin-1-yl)-5-phenylpyrazolo[1,5-a]pyrimidine-2-carboxamide]
110 nM	3130 nM	Cc1c(C(=O)NC2CN(C)C2)nn2c(-c3ccccc3)cc(-c3ccccc3)nc12 [Example 50, 3-Methyl-N-(1-methylazetidin-3-yl)-5,7-diphenylpyrazolo[1,5-a]pyrimidine-2-carboxamide]
4010 nM	> 31200 nM	CN1CC(NC(=O)c2cc3nc(N4CCC4)cc(-c4ccccc4)n3n2)C1 [Example 100, 5-(azetidin-1-yl)-N-(1-methylazetidin-3-yl)-7-phenylpyrazolo[1,5-a]pyrimidine-2-carboxamide]
262 nM	11 nM	O=C(NCCc1c[nH]cn1)c1cc2nc(-c3ccccc3)cc(-c3ccccc3)n2n1 [Example 34, N-(2-(1H-Imidazol-4-yl)ethyl)-5,7-diphenylpyrazolo[1,5-a]pyrimidine-2-carboxamide]
599 nM	8720 nM	CC(C)N1CCC(NC(=O)c2cc3nc(-c4ccccc4)cc(-c4ccccc4)n3n2)C1 (centres unmarked) [Example 4, N-(1-Isopropylpyrrolidin-3-yl)-5,7-diphenylpyrazolo[1,5-a]pyrimidine-2-carboxamide]
878 nM	12600 nM	O=C(NC1CCCC(n2ccnc2)C1)c1cc2nc(-c3ccccc3)cc(-c3ccccc3)n2n1 (centres unmarked) [Example 37, N-(3-(1H-Imidazol-1-yl)cyclohexyl)-5,7-diphenylpyrazolo[1,5-a]pyrimidine-2-carboxamide]
4360 nM	4540 nM	O=C(NC1CN(Cc2ccccc2)C1)c1cc2nc(-c3ccccc3)cc(-c3ccccc3)n2n1 [Example 3, N-(1-Benzylazetidin-3-yl)-5,7-diphenylpyrazolo[1,5-a]pyrimidine-2-carboxamide]
812 nM	2370 nM	Cn1ccc(-c2cc(-c3ccccc3)nc3cc(C(=O)NCCCn4ccnc4)nn23)n1 [Example 85, N-(3-(1H-imidazol-1-yl)propyl)-7-(1-methyl-1H-pyrazol-3-yl)-5-phenylpyrazolo[1,5-a]pyrimidine-2-carboxamide]
2750 nM	1420 nM	O=C(NCCc1ccccn1)c1cc2nc(-c3ccccc3)cc(-c3ccccc3)n2n1 [Example 39, 5,7-Diphenyl-N-(2-(pyridin-2-yl)ethyl)pyrazolo[1,5-a]pyrimidine-2-carboxamide]
395 nM	2500 nM	O=C(NCCCn1ccnc1)c1cc2nc(-c3ccccc3)cc(N3CCCC3)n2n1 [Example 66, N-(3-(1H-imidazol-1-yl)propyl)-5-phenyl-7-(pyrrolidin-1-yl)pyrazolo[1,5-a]pyrimidine-2-carboxamide]
273 nM	13300 nM	CN1CC(NC(=O)c2nn3c(-c4ccccc4)cc(-c4ccccc4)nc3c2C#N)C1 [Example 53, 3-Cyano-N-(1-methylazetidin-3-yl)-5,7-diphenylpyrazolo[1,5-a]pyrimidine-2-carboxamide]
416 nM	641 nM	O=C(NCC1CCNC1)c1cc2nc(-c3ccccc3)cc(-c3ccccc3)n2n1 (centres unmarked) [Example 121, 5,7-diphenyl-N-(pyrrolidin-3-ylmethyl)pyrazolo[1,5-a]pyrimidine-2-carboxamide]
821 nM	7710 nM	Cc1c(C(=O)NC2CCN(C)C2)nn2c(-c3ccccc3)cc(-c3ccccc3)nc12 (centres unmarked) [Example 51, 3-Methyl-N-(1-methylpyrrolidin-3-yl)-5,7-diphenylpyrazolo[1,5-a]pyrimidine-2-carboxamide]
